Data on four molecules can be found in patent publication US11426367B2, “Methods of treating substance abuse” (Perception Neuroscience, Inc., priority 2018, dated 2022).

Molecules are shown by their SMILES. “Also recorded” adds a separate entry of the source.

Data set [1] concerns medial forebrain bundle self-stimulation in rats. The data set is described as follows: Intracranial self-stimulation (ICSS), frequency-rate procedure. The settings on record: for M50, Test, mean log M50 frequency (SEM) / Threshold (T0), Test, mean log T0 frequency (SEM) / M50, Baseline, mean log M50 frequency (SEM) / Threshold (T0), Baseline, mean log T0 frequency (SEM): 10 rats.

The next data set relates to Control C57/B6 mice. Description: Conditioned place preference test (dependence test) in control mice. The settings on record: control mice, 10 mg/kg.
Data set [2] deals with medial forebrain bundle self-stimulation in rats. The following applies: doses 5.6, 10 mg/kg, Hillhouse et al., 2014; cited from earlier work.
For data set [3], the system named is rewarding effects of morphine. The following applies: Table 11, Suzuki et al., 2000; cited from earlier work.
Data set [4] concerns development of drug tolerance to ethanol. The following applies: tilt-plane test, Khanna et al., 1993; cited from earlier work.
The test system of the next data set is patients with depression. The settings on record: oral; Non Patent Literatures 15 and 16; cited from earlier work.
The subject of a further data set is Morphine Seizures. The settings on record: Not blocked by naloxone; Kolesnikov et al., 1997; cited from earlier work.
For data set [5], the system named is morphine withdrawal signs in rats. Description: Naloxone-precipitated withdrawal from subchronic morphine. It is filed as in vivo. The following applies: 0.25 mg/kg i.p. before naloxone 1 mg/kg SC, morphine 10 mg/kg SC b.i.d. Here is the method: Forty (40) male Wistar rats served as test subjects in this study. Animals were pair housed with unrestricted access to rodent chow and water (SOP ROD.03.01, SOP ROD.04.01, SOP ROD.18). […] All experimental activity occurring during the animals' light cycle. All animal use procedures were performed in accordance with the principles of the Canadian Council on Animal Care (CCAC).
Forty (40) male Wistar rats were assigned to 5 groups of N=8 rats per group. Group A was dosed with saline vehicle (Sal; subcutaneous (SC) route) twice daily (approx. 08:00±1 h and 18:00±1 h) for 12 days. […] This treatment regimen was designed to induce opioid dependence (Erami et al., 2012). […] On days 9 and 12, rats were tested for naloxone precipitated withdrawal. According to a cross-over design (see Table 4: Treatment Groups), all rats in each group received either acute saline, or naloxone hydrochloride (1 mg/kg; dose volume 2 ml/kg) injection by the SC route, 5 minutes prior to behavioral testing. […] Lofexidine doses are based on literature values (e.g. Shearman et al., 1979). Immediately after vehicle or naloxone injection, rats were transferred to activity chambers for 30 minutes where the animals were visually assessed for somatic signs associated with opioid withdrawal (e.g. writhes, chews, ptosis, WDS, shakes, tremor, penile grooming, body weight change; see Higgins and Sellers, 1994). Simultaneously, the activity pattern (distance travelled, rearing) of each rat was automatically recorded.
Locomotor activity. Spontaneous activity in the rats was measured with the automated Med Associates activity test chamber for 30 minutes with 10-minute time bins. The tracking arena was 17″W×17″L×12″H, sensor bars are secured 1″ above the floor to track distance travelled, and a second set of sensor bars are placed ˜5″ above the floor to measure vertical movement and rearing activity. The parameters set on the tracking software were as follows: resolution—50 milliseconds (ms), box size—4 beams, resting delay—500 ms, and ambulatory trigger—2 (SOP ROD.25). […]

Setting [6] is: 3 mg/kg i.p. 2 hours prior to test session.
The mark [7] stands for this setting: 10 mg/kg i.p. 2 hours prior to test session.
Setting [8] is: 30 mg/kg i.p. 2 hours prior to test session.
Where [9] appears, read: baseline session before dosing on the 3 mg/kg test day.
Setting [10] is: baseline session before dosing on the 10 mg/kg test day.
[11] abbreviates: baseline session before dosing on the 30 mg/kg test day.

Method for Control C57/B6 mice: 15-minute habituation was performed for 3 days. Then, 30-minute conditioning was performed on day 4 to day 10, and a behavioral evaluation test was performed on day 11. Saline was injected on day 5, day 7, and day 9. […] In each of the groups, the injection was performed three times, i.e., on day 4, day 6, and day 8. Saline means a group injected with saline.
The administration of an agent was performed by the same methods as the methods described in Example 2.
The place preference test was performed using a conditioned place preference test apparatus (BrainScienceIdea Co., Ltd., Osaka, Japan). The analysis of the results of the place preference test was performed by one-way analysis of variance (one-way ANOVA), followed by a least significant difference test (LSD test). Data are presented as the mean plus minus standard error of the mean (n=9 or 10 mice/group). *p<0.05 and **p<0.01 indicate significant differences as compared to a group injected with saline.

For the molecule `COC(=O)[C@H]1[C@@H](OC(=O)c2ccccc2)C[C@@H]2CC[C@H]1N2C` [Cocaine, cocaine], in data set [1] (rats, 10 mg/kg), the “ICSS frequency-rate response curve” value is given as “shifts the frequency curve to the left”.

Turning to `N[C@@]1(c2ccccc2Cl)CCC[C@@H](O)C1=O` [R-hydroxynorketamine], the “M50, Test, mean log M50 frequency (SEM)” value in data set [1] (setting [6]) is reported as 2.00 (0.01) log/Hz; in data set [1] (setting [7]) it was 2.00 (0.01) log/Hz; in data set [1] (setting [8]) it was 1.99 (0.02) log/Hz. Besides, the “Threshold (T0), Test, mean log T0 frequency (SEM)” value is 1.92 (0.02) log/Hz in data set [1] (setting [6]), 1.90 (0.02) log/Hz in data set [1] (setting [7]) and 1.91 (0.03) log/Hz in data set [1] (setting [8]). In addition, the “M50, Baseline, mean log M50 frequency (SEM)” value in data set [1] (setting [9]) is on record as 2.00 (0.02) log/Hz; in data set [1] (setting [10]) it was 1.98 (0.01) log/Hz; in data set [1] (setting [11]), 1.99 (0.02) log/Hz. Further, the “Threshold (T0), Baseline, mean log T0 frequency (SEM)” value in data set [1] (setting [9]) is reported as 1.89 (0.02) log/Hz; in data set [1] (setting [10]) it was 1.89 (0.02) log/Hz; in data set [1] (setting [11]), 1.90 (0.02) log/Hz. In addition, the “ICSS frequency-rate response curve” value in data set [1] (rats, 3, 10 or 30 mg/kg i.p. 2 hours prior to test session, vs saline vehicle) is listed as “did not alter the frequency-response function”.

As for `CNC1(c2ccccc2Cl)CCCCC1=O` (racemic) [RS(+/−)-ketamine], in the data set with Control C57/B6 mice, the “CPP score (conditioned place preference test)” value is “significantly increased the CPP score”. For the same molecule, in data set [2], the “ICSS, anhedonia” value was 5.6, 10 anhedonia. Besides, in data set [3], the “Morphine CPP, dose blocking the rewarding effects of morphine” value is 10 mg/kg. Further, the “Ethanol Tolerance, dose blocking development of tolerance” value in data set [4] was 1 - tilt-plane test mg/kg. Besides, in the data set on patients with depression, the “effective oral doses in patients with depression” value is 0.5 mg/kg. In addition, the “Morphine Seizures, dose” value with Morphine Seizures is on record as 0.3 mg/kg.

Regarding `CC(Oc1c(Cl)cccc1Cl)C1=NCCN1` (stereo not drawn) [lofexidine, Lofexidine], the “overall morphine withdrawal scores (naloxone-precipitated withdrawal signs)” value in data set [5] is recorded as “significantly attenuated the naloxone-induced withdrawal signs; also recorded: effective”.
